“And” between values parts separate entries of the source, which are not always exact repeats. Equal values may be shown once. Inconclusive results and toxic doses are left out.
Tested on: CD2F1 mice, L1210 leukemia ip, survival T/C
Assay: NCI In Vivo Anticancer Drug Screen. Data for tumor model L1210 Leukemia (intraperitoneal) in CD2F1 (CDF1) mice
Details: higher = longer survival
In short: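 Mice carrying a transplanted tumor received test compound or vehicle alone. The value is the measurement in the treated group divided by that in the vehicle-treated control group.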

[1] = endpoint: mean survival time, dose: 50.0 mg/kg/injection, schedule: Q01DX009 (ip), vehicle: saline with Tween-80
[2] = endpoint: mean survival time, dose: 100.0 mg/kg/injection, schedule: Q01DX009 (ip), vehicle: saline with Tween-80
[3] = endpoint: mean survival time, dose: 200.0 mg/kg/injection, schedule: Q01DX009 (ip), vehicle: saline with Tween-80

## CC(=O)NC(CCC(=O)C=[N+]=N)C(=O)O (configuration not stated)
endpoint: mean survival time, dose: 0.01 mg/kg/injection, schedule: Q03HX016 (ip), vehicle: saline
  T/C: 97 % of control
endpoint: mean survival time, dose: 0.03 mg/kg/injection, schedule: Q03HX008 (ip), vehicle: saline
  T/C: 95 % of control
endpoint: mean survival time, dose: 0.04 mg/kg/injection, schedule: Q03HX016 (ip), vehicle: saline
  T/C: 97 % of control
endpoint: mean survival time, dose: 0.06 mg/kg/injection, schedule: Q03HX008 (ip), vehicle: saline
  T/C: 97 % of control
endpoint: mean survival time, dose: 0.06 mg/kg/injection, schedule: Q03HX016 (ip), vehicle: saline
  T/C: 94 % of control
endpoint: mean survival time, dose: 0.13 mg/kg/injection, schedule: Q01DX005 (iv), vehicle: saline
  T/C: 98 % of control
endpoint: mean survival time, dose: 0.13 mg/kg/injection, schedule: Q01DX009 (ip), vehicle: saline
  T/C: 103 % of control
endpoint: mean survival time, dose: 0.13 mg/kg/injection, schedule: Q01DX009 (oral), vehicle: saline
  T/C: 102 % of control
endpoint: mean survival time, dose: 0.13 mg/kg/injection, schedule: Q03HX008 (ip), vehicle: saline
  T/C: 104 % of control
endpoint: mean survival time, dose: 0.13 mg/kg/injection, schedule: Q03HX016 (ip), vehicle: saline
  T/C: 106 % of control
endpoint: mean survival time, dose: 0.13 mg/kg/injection, schedule: Q03HX024 (ip), vehicle: saline
  T/C: 90 % of control
endpoint: mean survival time, dose: 0.13 mg/kg/injection, schedule: Q04DX003 (ip), vehicle: saline
  T/C: 101 % of control
endpoint: mean survival time, dose: 0.13 mg/kg/injection, schedule: Q08DX002 (ip), vehicle: saline
  T/C: 94 % of control
endpoint: mean survival time, dose: 0.25 mg/kg/injection, schedule: Q01DX001 (ip), vehicle: saline
  T/C: 92 % of control
endpoint: mean survival time, dose: 0.25 mg/kg/injection, schedule: Q01DX001 (iv), vehicle: saline
  T/C: 103 % of control
endpoint: mean survival time, dose: 0.25 mg/kg/injection, schedule: Q01DX005 (iv), vehicle: saline
  T/C: 106 % of control
endpoint: mean survival time, dose: 0.25 mg/kg/injection, schedule: Q01DX009 (ip), vehicle: saline
  T/C: 112 % of control
endpoint: mean survival time, dose: 0.25 mg/kg/injection, schedule: Q01DX009 (oral), vehicle: saline
  T/C: 113 % of control
endpoint: mean survival time, dose: 0.25 mg/kg/injection, schedule: Q03HX008 (ip), vehicle: saline
  T/C: 115 % of control and 122 % of control
endpoint: mean survival time, dose: 0.25 mg/kg/injection, schedule: Q03HX024 (ip), vehicle: saline
  T/C: 100 % of control
endpoint: mean survival time, dose: 0.25 mg/kg/injection, schedule: Q04DX003 (ip), vehicle: saline
  T/C: 101 % of control
endpoint: mean survival time, dose: 0.25 mg/kg/injection, schedule: Q08DX002 (ip), vehicle: saline
  T/C: 97 % of control
endpoint: mean survival time, dose: 0.4 mg/kg/injection, schedule: Q01DX009 (ip), vehicle: water
  T/C: 166 % of control
endpoint: mean survival time, dose: 0.5 mg/kg/injection, schedule: Q01DX001 (ip), vehicle: saline
  T/C: 97 % of control
endpoint: mean survival time, dose: 0.5 mg/kg/injection, schedule: Q01DX001 (iv), vehicle: saline
  T/C: 103 % of control
endpoint: mean survival time, dose: 0.5 mg/kg/injection, schedule: Q01DX005 (iv), vehicle: saline
  T/C: 118 % of control
endpoint: mean survival time, dose: 0.5 mg/kg/injection, schedule: Q04DX003 (ip), vehicle: saline
  T/C: 106 % of control
endpoint: mean survival time, dose: 0.5 mg/kg/injection, schedule: Q08DX002 (ip), vehicle: saline
  T/C: 104 % of control
endpoint: mean survival time, dose: 0.8 mg/kg/injection, schedule: Q01DX009 (ip), vehicle: water
  T/C: 115 % of control
endpoint: mean survival time, dose: 1.0 mg/kg/injection, schedule: Q01DX001 (ip), vehicle: saline
  T/C: 106 % of control
endpoint: mean survival time, dose: 1.0 mg/kg/injection, schedule: Q01DX001 (iv), vehicle: saline
  T/C: 107 % of control
endpoint: mean survival time, dose: 1.0 mg/kg/injection, schedule: Q01DX001 (oral), vehicle: saline
  T/C: 110 % of control
endpoint: mean survival time, dose: 1.0 mg/kg/injection, schedule: Q01DX009 (ip), vehicle: saline
  T/C: 119 % of control
endpoint: mean survival time, dose: 1.0 mg/kg/injection, schedule: Q01DX009 (oral), vehicle: saline
  T/C: 115 % of control
endpoint: mean survival time, dose: 1.0 mg/kg/injection, schedule: Q03HX016 (ip), vehicle: saline
  T/C: 151 % of control
endpoint: mean survival time, dose: 1.0 mg/kg/injection, schedule: Q03HX024 (ip), vehicle: saline
  T/C: 181 % of control
endpoint: mean survival time, dose: 1.0 mg/kg/injection, schedule: Q04DX003 (ip), vehicle: saline
  T/C: 117 % of control
endpoint: mean survival time, dose: 1.0 mg/kg/injection, schedule: Q06HX012 (ip), vehicle: saline
  T/C: 158 % of control
endpoint: mean survival time, dose: 1.0 mg/kg/injection, schedule: Q08DX002 (ip), vehicle: saline
  T/C: 111 % of control
endpoint: mean survival time, dose: 2.0 mg/kg/injection, schedule: Q01DX001 (ip), vehicle: saline
  T/C: 104 % of control and 109 % of control
endpoint: mean survival time, dose: 2.0 mg/kg/injection, schedule: Q01DX001 (iv), vehicle: saline
  T/C: 107 % of control
endpoint: mean survival time, dose: 2.0 mg/kg/injection, schedule: Q01DX001 (oral), vehicle: saline
  T/C: 120 % of control
endpoint: mean survival time, dose: 2.0 mg/kg/injection, schedule: Q01DX005 (ip), vehicle: saline
  T/C: 109 % of control
endpoint: mean survival time, dose: 2.0 mg/kg/injection, schedule: Q01DX005 (iv), vehicle: saline
  T/C: 120 % of control
endpoint: mean survival time, dose: 2.0 mg/kg/injection, schedule: Q03HX016 (ip), vehicle: saline
  T/C: 152 % of control
endpoint: mean survival time, dose: 2.0 mg/kg/injection, schedule: Q03HX024 (ip), vehicle: saline
  T/C: 108 % of control
endpoint: mean survival time, dose: 2.0 mg/kg/injection, schedule: Q04DX003 (ip), vehicle: saline
  T/C: 121 % of control and 124 % of control
endpoint: mean survival time, dose: 2.0 mg/kg/injection, schedule: Q06HX008 (ip), vehicle: saline
  T/C: 156 % of control
endpoint: mean survival time, dose: 2.0 mg/kg/injection, schedule: Q06HX012 (ip), vehicle: saline
  T/C: 151 % of control
endpoint: mean survival time, dose: 2.0 mg/kg/injection, schedule: Q08DX002 (ip), vehicle: saline
  T/C: 113 % of control and 107 % of control
endpoint: mean survival time, dose: 4.0 mg/kg/injection, schedule: Q01DX001 (ip), vehicle: saline
  T/C: 112 % of control
endpoint: mean survival time, dose: 4.0 mg/kg/injection, schedule: Q01DX001 (iv), vehicle: saline
  T/C: 117 % of control
endpoint: mean survival time, dose: 4.0 mg/kg/injection, schedule: Q01DX001 (oral), vehicle: saline
  T/C: 115 % of control
endpoint: mean survival time, dose: 4.0 mg/kg/injection, schedule: Q01DX005 (ip), vehicle: saline
  T/C: 102 % of control
endpoint: mean survival time, dose: 4.0 mg/kg/injection, schedule: Q06HX008 (ip), vehicle: saline
  T/C: 152 % of control
endpoint: mean survival time, dose: 4.0 mg/kg/injection, schedule: Q06HX012 (ip), vehicle: saline
  T/C: 113 % of control
endpoint: mean survival time, dose: 4.0 mg/kg/injection, schedule: Q08DX002 (ip), vehicle: saline
  T/C: 111 % of control
endpoint: mean survival time, dose: 8.0 mg/kg/injection, schedule: Q01DX001 (ip), vehicle: saline
  T/C: 116 % of control
endpoint: mean survival time, dose: 8.0 mg/kg/injection, schedule: Q01DX001 (oral), vehicle: saline
  T/C: 116 % of control
endpoint: mean survival time, dose: 8.0 mg/kg/injection, schedule: Q08DX002 (ip), vehicle: saline
  T/C: 114 % of control
endpoint: mean survival time, dose: 16.0 mg/kg/injection, schedule: Q04DX003 (ip), vehicle: saline
  T/C: 154 % of control

## COc1cc(C2c3cc4c(cc3[C@@H](OC)[C@H]3COC(=O)C23)OCO4)cc(OC)c1O (some centres not stated)
endpoint: median survival time, dose: 1.25 mg/kg/injection, schedule: Q01DX009 (ip), vehicle: saline with Tween-80
  T/C: 108 % of control
endpoint: median survival time, dose: 2.5 mg/kg/injection, schedule: Q01DX009 (ip), vehicle: saline with Tween-80
  T/C: 104 % of control
endpoint: median survival time, dose: 5.0 mg/kg/injection, schedule: Q01DX009 (ip), vehicle: saline with Tween-80
  T/C: 105 % of control
endpoint: median survival time, dose: 10.0 mg/kg/injection, schedule: Q01DX009 (ip), vehicle: saline with Tween-80
  T/C: 103 % of control

## CN1N(C(O)C(Cl)(Cl)Cl)C12CCCCC2 (configuration not stated)
endpoint: mean survival time, dose: 12.0 mg/kg/injection, schedule: Q01DX001 (ip), vehicle: carboxymethylcellulose (CMC)
  T/C: 94 % of control
endpoint: mean survival time, dose: 25.0 mg/kg/injection, schedule: Q01DX001 (ip), vehicle: carboxymethylcellulose (CMC)
  T/C: 97 % of control
endpoint: mean survival time, dose: 50.0 mg/kg/injection, schedule: Q01DX001 (ip), vehicle: carboxymethylcellulose (CMC)
  T/C: 95 % of control
endpoint: mean survival time, dose: 100.0 mg/kg/injection, schedule: Q01DX001 (ip), vehicle: carboxymethylcellulose (CMC)
  T/C: 95 % of control

## ClC1CC[N-]CC1.ClC1CC[N-]CC1.O=C(O)CC(=O)O.[Pt+2]
endpoint: mean survival time, dose: 12.5 mg/kg/injection, schedule: Q01DX009 (ip), vehicle: saline with Tween-80
  T/C: 96 % of control
endpoint: mean survival time, dose: 25.0 mg/kg/injection, schedule: Q01DX009 (ip), vehicle: saline with Tween-80
  T/C: 94 % of control
[1]
  T/C: 102 % of control
[2]
  T/C: 104 % of control
[3]
  T/C: 96 % of control

## N#CC(=C1C=CC(=NO)C=C1)c1ccccc1
[1]
  T/C: 93 % of control
[2]
  T/C: 100 % of control
endpoint: mean survival time, dose: 100.0 mg/kg/injection, schedule: Q04DX003 (ip), vehicle: saline with Tween-80
  T/C: 97 % of control
[3]
  T/C: 100 % of control
endpoint: mean survival time, dose: 200.0 mg/kg/injection, schedule: Q04DX003 (ip), vehicle: saline with Tween-80
  T/C: 96 % of control

## CCC1COCC1Cc1cncn1C (configuration not stated)
endpoint: mean survival time, dose: 75.0 mg/kg/injection, schedule: Q01DX001 (ip), vehicle: saline
  T/C: 97 % of control
endpoint: mean survival time, dose: 150.0 mg/kg/injection, schedule: Q01DX001 (ip), vehicle: saline
  T/C: 101 % of control
endpoint: mean survival time, dose: 300.0 mg/kg/injection, schedule: Q01DX001 (ip), vehicle: saline
  T/C: 100 % of control

From PubChem BioAssay AID256 (DTP/NCI, 2004)
